Data taken from patent publication US20100292260A1, “6-VINYL PYRIMIDINE AND PYRIMIDINONE DERIVATIVES AND THE USE THEREOF” (priority 2005, published 2010).
Read-outs that look alike come from different tables or passages of the source.

Legend:
[1] = system: wild strain of HIV-1 NL4-3; assay: Inhibition of viral proliferation on culture cells (MT-4, MTT), wild strain; format: cell-based
Method: (§1) The biological activity of the compounds was evaluated on lymphoid cell lines MT-4 against the wild strain of HIV-1 NL4-3. The MT-4 cells were briefly infected with the appropriate HIV-1 or the infection was simulated to determine the cytoxicity, in the presence of different concentrations of potential inhibitor compounds. 5 days after the infection a colorimetric method was used that involves using a tetrazole salt (MTT) to evaluate the number of surviving cells. The mutant IRLL98 HIV-1 contains the following mutations in the coding sequence for RT:M41L, D67N, Y181C, M184V, R211K, T215Y (resistance to NRTI) and the mutations K101Q, Y181C, G190A (resistance to NNRTI). The H1V-1 mutants containing multi-NNRTI mutations, K103N or Y188L as mutants were supplied by the Medical Research Council Centralised Facility for AIDS Reagents, Herfordshire, UK.

HIV-1 mutant K103N = assay: Inhibition of viral proliferation on culture cells (MT-4, MTT), K103N mutant; format: cell-based
Method: as §1

HIV-1 mutant Y181L = assay: Inhibition of viral proliferation on culture cells (MT-4, MTT), Y181L mutant; format: cell-based
MT-4 cells = assay: Cytotoxicity in mock-infected MT-4 cells (MTT); format: cell-based
Method: as §1

[2] = target: T1, HIV-1 (recombinant) reverse transcriptase (Human immunodeficiency virus type 1 group M subtype B, UniProt P03366); assay: Enzyme test: reverse transcription reaction in vitro with recombinant RT, wild type; format: biochemical; settings: for IC50: Table 1, recombinant RT wild type, read-out: ID50 WT
T1 construct: 20-50 nM HIV-1 (recombinant) reverse transcriptase
Method: (§2) In a final volume of 25 microlitres the following reagents were mixed: 50 mM Tris-HCl pH 7.5, 0.25 mg/ml BSA, 0.5 mM DTT, 20-50 nM HIV-1 (recombinant) reverse transcriptase, nucleotide substrate dTTP marked radioactively (^3H, 4 Ci/mmol) and nucleic acid (poly(rA)/oligo(dT)). The concentrations of dTTP and poly(rA)/oligo(dT) in standard conditions were 5 μM and 0.5 μM, respectively.
(§3) The reaction mixture is incubated 10 min. at 37° C. and 20 μl are removed and deposited on a GF/C Whatman glass fibre filter measuring 25 mm in diameter. The filters are washed 3 times for 5 min. in 5% trichloroacetic acid and once for 5 min. in absolute alcohol. After being dried, the filters are immersed in a scintillating mixture (Packard) and the acid precipitable radioactivity is measured by a scintillation counter for β-emitting isotopes (Beckman).
(§4) The dose-response curves obtained by means of samples of enzyme activity in the presence of increasing doses of inhibitor were analysed according to the equation E(%)=Emax/([…], where E(%) is the fraction of enzyme activity that is measurable in the presence of each concentration of inhibitor, Emax is the activity in the absence of an inhibitor, I is the concentration of inhibitor. The ID50 was calculated by analysing data using the GraphPad Prism graphic interpolation programme (for Macintosh).

[3] = target: T2, reverse transcriptase containing the mutation K103N (Human immunodeficiency virus type 1 group M subtype B, UniProt P03366, K702N); assay: Enzyme test with mutated reverse transcriptase K103N; format: biochemical, HIV-1
T2 construct: cloning the gene of the mutated RT in an expression vector for prokariotic cells; made in house
Method: as §2, §3
(§5) In some experiments, the HIV-1 recombinant reverse transcriptase was substituted by a reverse transcriptase containing the mutations K.103N and Y181I. They were produced by cloning the gene of the mutated RT in an expression vector for prokariotic cells according to the method reported in the literature (Maga G, Amacker M, Ruel N, Hubscher U, Spadari S. Resistance to nevirapine of HIV-1 reverse transcriptase mutants: loss of stabilizing interactions and thermodynamic or steric barriers are induced by different single amino acid substitutions. J Mol Biol. Dec. 19, 1997; 274(5):738-47).
as §4

[4] = target: T3, reverse transcriptase containing the mutation Y181I (Human immunodeficiency virus type 1 group M subtype B, UniProt P03366, Y780I); assay: Enzyme test with mutated reverse transcriptase Y181I; format: biochemical, HIV-1
T3 construct: cloning the gene of the mutated RT in an expression vector for prokariotic cells; made in house
Method: as §2, §3, §5, §4

[5] = Cytotoxicity in mock-infected MT-4 cells (MTT); format: cell-based; settings: human
Method: as §1

HIV-1 mutant Y181C = assay: Inhibition of viral proliferation on culture cells (MT-4, MTT), Y181C mutant; format: cell-based; settings: Table 3; at 56.18
Method: as §1

HIV-1 mutant Y188L = assay: Inhibition of viral proliferation on culture cells (MT-4, MTT), Y188L mutant; format: cell-based; settings: Table 3; cell test; read-out: Y188L
Method: as §1

[6] = Table 1, MT-4 cells, read-out: EC50 NL4-3 wt
[7] = Human immunodeficiency virus 1, NL43, MT4, read-out: EC50 NL4-3 wt
[8] = Human immunodeficiency virus 1, MT4, read-out: EC50 K103N
[9] = Human immunodeficiency virus 1, MT4, read-out: EC50 Y181L

| SMILES | EC50 [1, 6] [µM] | CC50 (MT-4 cells) [µM] | IC50 [2] [µM] | IC50 [3] [µM] | IC50 [4] [µM] | EC50 [1, 7] [µM] | EC50 (HIV-1 mutant K103N; [8]) [µM] | EC50 (HIV-1 mutant Y181L; [9]) [µM] | CC50 at 5 days [5] [µM] | also measured |
| --- | --- | --- | --- | --- | --- | --- | --- | --- | --- | --- |
| C=Cc1cc(N(CC)CC)nc(SCc2ccc(OC)cc2)n1 [6′a] | > 33 | 33 | – | – | – | – | – | – | – | EC50 (HIV-1 mutant K103N; Table 1, MT-4 cells, read-out: EC50 K103N): 3.6 µM; EC50 (HIV-1 mutant Y181L; Table 1, MT-4 cells, read-out: EC50 Y181L): > 35.8 µM |
| C=Cc1cc(N(CC)CC)nc(S(=O)(=O)Cc2ccc(OC)cc2)n1 [8′] | > 42.9 | 42.9 | 467 | – | – | – | – | – | – | – |
| C=Cc1cc(N(C)C)nc(S(C)(=O)=O)n1 [Compound 8a] | – | – | 0.022 | 28 | 78 | > 110 | > 110 | > 110 | 110 | increase in activity in relation to the wild type enzyme [2]: 2900 times; inhibition of the RT at different concentrations of dTTP ([2]; FIG. 1): decreases with the increase of the concentrations of TTP; apparent affinity (Kapp) of the RT for dTTP ([2]; FIG. 2, different concentrations of 8a): decreases as the concentration of 8a increases; inhibition of the RT at different concentrations of poly(rA)/oligo(dT) ([2]; FIG. 3): increase of the capacity thereof to inhibit RT; preferred enzyme form bound ([2]; FIG. 3): preferentially binds to the binary complex of the RT with the nucleic acid; reverse transcriptase ID50 greater than that of MB3B ([2]; compared with MB3B): 3 orders of magnitude; action mechanism: inhibition of reverse transcriptase ([2]; versus nucleotide substrate): competitive with the nucleotide; activity against enzyme with resistance mutation in position 103, in words [3]: significantly active; activity against enzyme with resistance mutation in position 181, in words [4]: significantly active; activity in cell tests on wild type, in words [1]: did not show appreciable activity |
| C=Cc1nc(S(C)(=O)=O)nc(N(C)C)c1I [Compound 8b] | – | – | 275 | > 400 | > 400 | > 22.9 | > 22.9 | > 22.9 | 22.9 | – |
| COc1ccc(C#CCSc2nc(Cc3c(Cl)cccc3Cl)c(C)c(=O)[nH]2)cc1 [Compound 27c] | – | – | – | – | – | – | – | – | – | EC50 ([1]; Table 3, cell test, read-out: NLA-3wt): 2.47 µM; EC50 (HIV-1 mutant K103N; Table 3, cell test, read-out: K103N): > 56.2 µM; Y181C, % at given concentration (HIV-1 mutant Y181C): 40% at; EC50 (HIV-1 mutant Y188L): > 56.2 µM; CC50 (MT-4 cells; Table 3, read-out: CC50): > 56.2 µM |
